The text below walks through data of patent publication US20040110844A1, “Anti-tumor pharmaceutical composition comprising N-vanillyl fatty acid amide” (KUREHA CHEMICAL INDUSTRY COMPANY, Limited, priority 2002, published 2004).

Data set [1] deals with B16F10 melanoma cell. In words: Growth of B16F10 melanoma cells, number of cells counted with trypan blue and hemocytometer. It counts as cell-based, mouse. Conditions: for cells in culture relative to the control culture: 50 μM; for cells in culture relative to the control culture / cells in culture relative to the control culture (survival ratio): cultured for 48 hours, B16F10; for cells in culture relative to the control culture (survival ratio): 100 μM; for action on the growth of melanoma cells (in words): 10-300 μM capsaicin, 10-100 μM Dohevanil, 48 hours, versus control. Here is the method:
B16F10 melanoma cell used for the comparison was a malignant melanoma cell derived from a mouse. The melanoma cells were cultured under 5% CO2 condition at 37 degrees Celsius in DMEM culture medium (pH7.2) including 10% of bovine fetus serum and penicillin/streptomycin solution. After the cells reached from 70% to 80% confluent, the cells were treated with trypsin-EDTA to release from the wall of culture device and were subjected to passage culture.
The number of cells were measured by the process comprising suspending the cells collected, sufficiently mixing the suspension with a trypan blue stain solution in the same volume of the suspension, watching the suspension using a phase contrast microscope and measuring the number of cells with a hemocytometer (Burker-Turk hemocytometer, Nippon Rinsho Kikai Kogyo Ltd.)
In order to examine the action of capsaicin to the growth of melanoma cells, the number of the cells were measured after 10 μM, 30 μM, 50 μM, 100 μM, or 300 μM of capsaicin was added to the MDEM media in which the melanoma cells exist and then the cells were cultured for 48 hours. […] In order to examine the action of Dohevanil to the growth of melanoma cells, the number of the cells were measured in the same manner as conducted for capsaicin except that capsaicin was replaced with Dohevanil. The melanoma cells were cultured in 10 μM, 30 μM, 50 μM, or 100 μM of Dohevanil.

For data set [2], the system named is B16F10 melanoma cell. The data set is described as follows: Phase contrast microscope observation of treated melanoma cells. It counts as cell-based, mouse. Conditions: Dohevanil 50 μM compared with capsaicin 300 μM. Here is the method: The observation of cytomorphology using the light microscope was carried out by counting with TMS (NIKON Corporation) and photographing, after plating the cells on a multiplate, and culturing it for a given time.
The shape and appearance of the melanoma cells treated in the presence of capsaicin in the concentration of 300 μM or Dohevanil in the concentration of 50 μM was observed using a phase contrast microscope.

The test system of data set [3] is B16F10 melanoma cell. In words: Hoechst 33342 fluorescence microscopy for apoptosis in melanoma cells. It counts as cell-based, mouse. Conditions: Hoechst33342, each concentration, versus control. Here is the method:
The observation using the fluorescence microscope was carried out by the process comprising washing with PBS (−) a suspension of B16F10 cells treated with an agent for a given time (1×10^6 cells/ml), fixing the cells with 4% paraformaldehyde overnight, washing the cell fixed solution with PBS(−), suspending the cells in 20 μl of PBS (−), mixing 2 μl of fluorescence indicator (Hoechst 33342 (1 mM)) with each 5 μl of the cell suspension, placing a cover glass on the mixture, watching it using the fluorescence microscope (U region) and photographing.
The shape of the cells was observed using Hoechst33342 (dye) which specifically combined with the chromosome by fluorescence microscope to find out whether or not the cell death by capsaicin or Dohevanil was due to the apoptosis. As a result, the aggregation of chromatins and the disorder of nuclear shape, which are characteristics of the cell death by apoptosis, were observed by comparison with the control in each concentration of capsaicin or Dohevanil.

The next data set has as its system HeLa cells. In words: HeLa cell growth by WST-1 method and LDH active release. It counts as cell-based, human. Conditions: for survival ratio of the cells: 100 μM, HeLa cells; for action on the growth of HeLa cells (in words): 10, 30, 50, 100 μM. Here is the method:
(§1) In order to make a comparison between the anti-tumor effects of capsaicin and Dohevanil, the following experimentation was carried out using HeLa cells derived from human uterocervical cancer as a tomor cell and NIH/3T3 cells as a normal cell. These cells used in the experimentation were cultured in RPMI-1640 medium (pH7.2) with 5% bovine fetal serum under the culture conditions being maintained in 5% CO2 and at 37 degrees Celsius. capsaicin or Dohevanil was added to each of the cell suspensions in the concentration of 10 μM, 30 μM, 50 μM, or 100 μM and then the cells were cultured. In this comparative example, the capability of cell growth was measured by WST-1 method and LDH active release into the supernatant as an indicator.
(§2) In this connection, the term “WST-1 method” used in the example means a method comprising reducing a formazan by using a reductase activity of mitochondria and determining an absorption of the coloring. The absorption may be used as an indicator of the cell growth because the reductase activity of mitochondria is lost if the cells die. The term “LDH active release” as used herein means that LDH (lactate dehydrogenase) is released due to a destruction of cell membrane accompanied with a cell death, and the measured value of the active release can be used as an indicator of the cell death.

Another data set has as its system NIH/3T3 cells. The data set is described as follows: NIH/3T3 normal cell growth by WST-1 method and LDH active release. The class given is cell-based. Conditions: concentration 30 μM or less. Here is the method: as §1, §2
(In general: Tetrazolium assays rely on reduction of a dye to a coloured formazan, in cell work by metabolically active cells.)

The subject of data set [4] is caspase 3 activity. In words: Measurement of caspase 3 activity (Example 6). The class given is cell-based.
The subject of data set [5] is human acute leukemia cell U937. The data set is described as follows: U937 cell growth by cell differential staining with trypan blue. It counts as cell-based. Conditions: for survival ratio of the cells: 100 μM, U937 cells; for action on the growth of U937 cells (in words): 10, 30, 50, 100 μM. Here is the method:
In order to make a comparison between the anti-leukemic cell effects of capsaicin and Dohevanil, the following experimentation was carried out using a human acute leukemia cell U937. The U937 cells were cultured in RPMI-1640 medium (pH7.2) with 5% bovine fetal serum under the culture conditions being maintained in 5% CO2 and at 37 degrees Celsius. capsaicin or Dohevanil was added to each of the cell suspensions in the concentration of 10 μM, 30 μM, 50 μM,or 100 μM and then the cells were cultured. In this comparative example, the capability of cell growth was evaluated using the measured value as an indicator obtained by a method for the cell differential staining with trypan blue.
The method for the cell differential staining with trypan blue is a method utilizing the characters that trypan blue combines with a protein to color in blue and that trypan blue enters into the dead cells due to the loss of a membrane function to prevent from its invasion. Since the dead cells are colored in blue with trypan blue, the survival ratio of the cells can be determined by counting the stained cells using a microscope.

Data set [6] deals with caspase 3 activity. In words: Measurement of caspase 3 activity (Example 7, U937). The class given is cell-based, human. As for the experimental part:
In particular, when the concentration is 100 μM, although the survival ratio of the cells with capsaicin is about 50%, that with Dohevanil is zero (0) %. Accordingly, it is apparent as compared with capsaicin that Dohevanil is very low in the degree of hotness and stimulus, and coincidentally has a higher anti-leukemic cell effects.

For data set [7], the system named is Hela cell (uterocervica cancer cell). Conditions: low concentration; cited from earlier work.
For data set [8], the system named is HL-60 cell (acute promyelocytic leukemia cell). Conditions: low concentration; cited from earlier work.
For data set [9], the system named is normal cells of human mammary gland epithelium and of liver and kidney of the rat. Conditions: cited from earlier work.

Structures are written as SMILES.

With `CC/C=C\C/C=C\C/C=C\C/C=C\C/C=C\C/C=C\CCC(=O)NCc1ccc(O)c(OC)c1` [Dohevanil, N-vanillyl-4,7,10,13,16,19-Docosahexaenamide], in the data set with B16F10 melanoma cell [1], the “cells in culture relative to the control culture” value is given as “about 10%”, the “cells in culture relative to the control culture (survival ratio)” value is listed as 0% and the “action on the growth of melanoma cells (in words)” value is recorded as “suppressed the growth of the cells depending on the concentration”. For the same molecule, the “melanoma cells adhered to the wall of culture vessel (in words)” value with B16F10 melanoma cell [2] is “extremely reduced”. Also, the “induction of apoptosis (aggregation of chromatins, disorder of nuclear shape)” value in the data set on B16F10 melanoma cell [3] is listed as “strongly induces the apoptosis”. In the data set with HeLa cells, the “survival ratio of the cells” value was determined as 0% and the “action on the growth of HeLa cells (in words)” value is recorded as “suppress the growth of HeLa cells depending on their concentrations”. For the same molecule, in the data set with NIH/3T3 cells, the “action to NIH/3T3 normal cells (in words)” value is on record as “hardly act”. Further, the “apoptosis according to caspase 3 activity” value (“apoptosis according” below) in the data set on caspase 3 activity [4] is listed as “induce the apoptosis to cause the cell death”. In data set [5], the “survival ratio of the cells” value was found to be 0% and the “action on the growth of U937 cells (in words)” value was “suppress the growth of U937 cells depending on their concentrations”. In addition, the “apoptosis according” value with caspase 3 activity [6] is listed as “induce the apoptosis to cause the cell death”.
In the case of `COc1cc(CNC(=O)CCCCC=CC(C)C)ccc1O` [capsaicin, 8-methyl-N-vanillyl-6-nonenamide], in the data set with B16F10 melanoma cell [1], the “cells in culture relative to the control culture” value is listed as “about 60%”, the “cells in culture relative to the control culture (survival ratio)” value is listed as “about 50%” and the “action on the growth of melanoma cells (in words)” value was “suppressed the growth of the cells depending on the concentration”. In the data set with B16F10 melanoma cell [3], the “induction of apoptosis (aggregation of chromatins, disorder of nuclear shape)” value is on record as “induce the apoptosis to melanoma cells”. In the data set on HeLa cells, the “survival ratio of the cells” value is listed as “about 50%” and the “action on the growth of HeLa cells (in words)” value is listed as “suppress the growth of HeLa cells depending on their concentrations”. Also, the “action to NIH/3T3 normal cells (in words)” value in the data set with NIH/3T3 cells is “hardly act”. Moreover, the “apoptosis according” value in the data set with caspase 3 activity [4] is given as “induce the apoptosis to cause the cell death”. For the same molecule, in data set [5], the “survival ratio of the cells” value is listed as “about 50%” and the “action on the growth of U937 cells (in words)” value is “suppress the growth of U937 cells depending on their concentrations”. Also, the “apoptosis according” value with caspase 3 activity [6] is “induce the apoptosis to cause the cell death”. Besides, the “proliferative inhibitory effect (in words)” value in [7] is “proliferative inhibitory effect in a low concentration”. Besides, in data set [8], the “proliferative inhibitory effect (in words)” value was “proliferative inhibitory effect in a low concentration”. The “proliferative inhibitory effect to normal cells (in words)” value in data set [9] is given as “without any proliferative inhibitory effects”.
